Test results from PMC12555108, “In‐vitro Assessment of BCRP‐Mediated Efflux of Antiseizure Medications in Human Blood‐Brain Barrier Cell Model” (Journal of Biochemical and Molecular Toxicology, 2025).

How the values were obtained:
BCRP [1] = target: T1, BCRP (Homo sapiens, UniProt Q9UNQ0); details: previous data; cited from earlier work
T1 sequence (Q9UNQ0 1-655): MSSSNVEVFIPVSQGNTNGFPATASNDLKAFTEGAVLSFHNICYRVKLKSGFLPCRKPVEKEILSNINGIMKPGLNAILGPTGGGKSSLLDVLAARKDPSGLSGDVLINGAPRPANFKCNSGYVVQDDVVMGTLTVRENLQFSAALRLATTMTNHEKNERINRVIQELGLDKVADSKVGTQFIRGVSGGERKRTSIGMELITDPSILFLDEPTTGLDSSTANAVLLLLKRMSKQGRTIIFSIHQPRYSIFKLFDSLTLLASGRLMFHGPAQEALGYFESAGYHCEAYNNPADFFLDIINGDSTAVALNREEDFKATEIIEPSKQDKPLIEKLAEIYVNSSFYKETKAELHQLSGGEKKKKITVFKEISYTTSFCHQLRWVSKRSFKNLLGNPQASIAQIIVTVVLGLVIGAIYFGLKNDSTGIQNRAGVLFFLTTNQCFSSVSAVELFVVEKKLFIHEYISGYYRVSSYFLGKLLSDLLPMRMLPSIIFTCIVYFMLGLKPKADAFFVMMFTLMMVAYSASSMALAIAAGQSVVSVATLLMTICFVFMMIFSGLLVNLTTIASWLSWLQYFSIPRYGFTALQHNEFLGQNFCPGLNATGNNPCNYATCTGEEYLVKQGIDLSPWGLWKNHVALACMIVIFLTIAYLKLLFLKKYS

BCRP [2] = target: T1, BCRP; parameters: host or cells: MCF-7 cells overexpressing BCRP; details: previous study; cited from earlier work
[3] = parameters: method as in Johannessen, 2004; Patsalos, 2008; Lee, 2016; details: patients with epilepsy; ref Johannessen, 2004; Patsalos, 2008; Lee, 2016; cited from earlier work
BCRP [4] = target: T1, BCRP; experiment: bidirectional transport assay across hCMEC/D3 cell monolayer with or without Ko143; details: for transport by BCRP (conclusion of bidirectional transport assay): ER ≥ 1.5 and significantly reduced by Ko143; for Papp A→B at 2 h, 300 µM / Papp A→B at 2 h, 600 μM / Papp B→A at 2 h, 300 µM / Papp B→A at 2 h, 600 μM / efflux ratio at 2 h / efflux ratio at 2 h, 300 µM / efflux ratio at 2 h, 600 μM / Papp A→B at 2 h, 40 μM / Papp A→B at 2 h, 80 μM / Papp B→A at 2 h, 40 μM / Papp B→A at 2 h, 80 μM / efflux ratio at 2 h, 40 μM / efflux ratio at 2 h, 80 μM: human
Method: For transport assays, hCMEC/D3 cells were seeded on collagen type I‐coated Transwell inserts (polycarbonate 12‐well, pore size […]) (cat. no. CLS3460; Corning, NY, USA) at 80% confluency and cultured as described in section 2.5. In brief, the drug was dissolved in Hanks’ balanced salt solution supplemented with 10 mM HEPES, 1 mM Na‐Pyruvate, pH 7.4 at 37°C (transport buffer). Initially, both sides of the chamber were washed with 1X PBS and the assay was performed with pre‐warmed transport buffer. 0.5 ml or 1.5 ml of the drug solution, with or without BCRP‐specific inhibitor Ko143 (1 μM) was added to either the apical side or basolateral side of the monolayer, respectively, and fresh transport buffer was added to the opposite side. Aliquots of 100 μl samples were taken from the opposite sides every 30 min for 2 h, and the same amount of fresh transport buffer was added to the same chamber after each sampling. […] Concentrations of ASMs were evaluated by HPLC or LC/MS. Apparent permeability (Papp) is defined as the transport rate of ASM and efflux ratio (ER) was calculated as the ratio of Papp in the basolateral‐to‐apical (Papp(B→A)) direction to the Papp in the apical‐to‐basolateral (Papp(A→B)) direction. The samples were stored at −20°C until analysis. […] Fluorescence detection of lucifer yellow (excitation at 430 nm, and emission at 535 nm) was carried out with Infinite 200 PRO NanoQuant (Tecan, Zurich, Switzerland). […] All transport assays were performed in triplicate.
The calculation for apparent permeability coefficient, Papp, was performed as described before. Papp=dQr/dt/A×C0 where dQr/dt is the cumulative amount in the receiver side vs time in μM/s
A is the area of the cell monolayer
C0 is the initial concentration of the dosing solution (μM).
And, Efflux ratio=Papp(B−to−A)/Papp(A−to−B)

CCCC(CCC)C(=O)O [VPA, valproic acid]
BPZ accumulation in competitive substrate efflux assay in hCMEC/D3 cells (BCRP [1]): increased BPZ accumulation
stimulation of BCRP ATPase activity (BCRP [2]): stimulated
Therapeutic plasma concentration range [3]: 300 to 600 µM
transport by BCRP (conclusion of bidirectional transport assay) (BCRP [4]; hCMEC/D3 monolayer): transports
Papp A→B at 2 h, 300 µM (BCRP [4]; pH 7.4): 0.19 ×10⁻⁶ cm/s
Papp A→B at 2 h, 600 μM (BCRP [4]; pH 7.4): 0.34 ×10⁻⁶ cm/s
Papp B→A at 2 h, 300 µM (BCRP [4]; pH 7.4): 0.31 ×10⁻⁶ cm/s
Papp B→A at 2 h, 600 μM (BCRP [4]; pH 7.4): 0.64 ×10⁻⁶ cm/s
efflux ratio at 2 h (BCRP [4]; pH 7.4, Efflux ratio (ER) without inhibitor, at all the tested concentrations, hCMEC/D3 monolayer): > 1.5
efflux ratio at 2 h, 300 µM (BCRP [4]; pH 7.4, Efflux ratio (ER), hCMEC/D3 without inhibitor Ko143, 300 μM, hCMEC/D3 monolayer): > 1.5
efflux ratio at 2 h, 600 μM (BCRP [4]; pH 7.4, Efflux ratio (ER), hCMEC/D3 without inhibitor Ko143, 600 μM, hCMEC/D3 monolayer): > 1.5
Papp A→B at 2 h, 300 µM (BCRP [4]; pH 7.4, with Ko143 1 μM): 0.21 ×10⁻⁶ cm/s
Papp A→B at 2 h, 600 μM (BCRP [4]; pH 7.4, with Ko143 1 μM): 0.33 ×10⁻⁶ cm/s
Papp B→A at 2 h, 300 µM (BCRP [4]; pH 7.4, with Ko143 1 μM): 0.24 ×10⁻⁶ cm/s
Papp B→A at 2 h, 600 μM (BCRP [4]; pH 7.4, with Ko143 1 μM): 0.37 ×10⁻⁶ cm/s
efflux ratio at 2 h (BCRP [4]; pH 7.4, with Ko143 1 µM, Efflux ratio (ER) in the presence of Ko143, at all the tested concentrations, hCMEC/D3 monolayer, 1 μM Ko143): ~1
efflux ratio at 2 h, 300 µM (BCRP [4]; pH 7.4, with Ko143 1 µM, Efflux ratio (ER), hCMEC/D3 with inhibitor Ko143, 300 μM, hCMEC/D3 monolayer, 1 μM Ko143): 1.1
efflux ratio at 2 h, 600 μM (BCRP [4]; pH 7.4, with Ko143 1 μM, Efflux ratio (ER), hCMEC/D3 with inhibitor Ko143, 600 μM, hCMEC/D3 monolayer, 1 μM Ko143): 1.14

O=C1NC(=O)C(c2ccccc2)(c2ccccc2)N1 [PHT, phenytoin]
BPZ accumulation in competitive substrate efflux assay in hCMEC/D3 cells (BCRP [1]): increased BPZ accumulation
stimulation of BCRP ATPase activity (BCRP [2]): stimulated
Therapeutic plasma concentration range [3]: 40 to 80 µM
Efflux ratio (ER), hCMEC/D3 without inhibitor Ko143 (BCRP [4]; 80 μM, hCMEC/D3 monolayer): 1.53
transport by BCRP (conclusion of bidirectional transport assay) (BCRP [4]; hCMEC/D3 monolayer): not
Papp A→B at 2 h, 40 μM (BCRP [4]; pH 7.4): 2.12 ×10⁻⁶ cm/s
Papp A→B at 2 h, 80 μM (BCRP [4]; pH 7.4): 3.09 ×10⁻⁶ cm/s
Papp B→A at 2 h, 40 μM (BCRP [4]; pH 7.4): 2.59 ×10⁻⁶ cm/s
Papp B→A at 2 h, 80 μM (BCRP [4]; pH 7.4): 3.36 ×10⁻⁶ cm/s
efflux ratio at 2 h, 40 μM (BCRP [4]; pH 7.4, Efflux ratio (ER), hCMEC/D3 without inhibitor Ko143, 40 μM, hCMEC/D3 monolayer): 1.28
efflux ratio at 2 h, 80 μM (BCRP [4]; pH 7.4, Efflux ratio (ER), hCMEC/D3 without inhibitor Ko143, 80 μM, hCMEC/D3 monolayer): 1.5
Papp A→B at 2 h, 40 μM (BCRP [4]; pH 7.4, with Ko143 1 μM): 2.71 ×10⁻⁶ cm/s
Papp A→B at 2 h, 80 μM (BCRP [4]; pH 7.4, with Ko143 1 μM): 2.03 ×10⁻⁶ cm/s
Papp B→A at 2 h, 40 μM (BCRP [4]; pH 7.4, with Ko143 1 μM): 3.07 ×10⁻⁶ cm/s
Papp B→A at 2 h, 80 μM (BCRP [4]; pH 7.4, with Ko143 1 μM): 2.12 ×10⁻⁶ cm/s
efflux ratio at 2 h, 40 μM (BCRP [4]; pH 7.4, with Ko143 1 μM, Efflux ratio (ER), hCMEC/D3 with inhibitor Ko143, 40 μM, hCMEC/D3 monolayer, 1 μM Ko143): 1.17
efflux ratio at 2 h, 80 μM (BCRP [4]; pH 7.4, with Ko143 1 μM, Efflux ratio (ER), hCMEC/D3 with inhibitor Ko143, 80 μM, hCMEC/D3 monolayer, 1 μM Ko143): 1.31
